These results are taken from patent publication US8334000B2, “Anti-angiogenic extracts from pomegranate” (priority 2003, dated 2012).

As a reminder, the inhibition is how much of the control response was suppressed.

Read-outs that look alike come from different tables or passages of the source. Some results are limits rather than exact numbers.

Series [1] relates to human placental vein discs. In words: Human placental vein angiogenesis model (HPVAM): initiation and angiogenic index. Type of series: cell-based. The settings on record: for inhibition at 0.01 % strength: 0.01% w/v. From the text: The Human Placental Vein Angiogenesis Model: Discarded human placentas were obtained anonymously with prior approval of an Institutional Review Board. The placental veins were dissected free from the placenta and adventitial tissue. The trimmed vein segment was opened longitudinally to produce a flat film of venous tissue of full thickness. Vein discs (2 mm diameter) were created with a sterile skin punch (Miltex Instrument Company, Inc.; Lake Success, N.Y.). The discs were placed into wells of a standard 96-well plate (Corning Inc., Corning, N.Y.). The vein disc harvest was completed within three hours of delivery to optimize endothelial cell viability. Vein discs from a single placenta were distributed equally among all treatment groups to ensure randomization. Each well was preloaded with a human thrombin solution (0.05 IU in 2.0 μl), and allowed to evaporate to dryness before use. All chemicals were purchased from Sigma Chemical Company (St. Louis, Mo.) unless otherwise indicated.
Following the placement of the 2 mm vein disc in the bottom of each thrombin-containing well, the disc was covered with 100 μl of a clot-forming medium, comprising 3 mg/ml fibrinogen and 0.5% Σ-amino caproic acid dissolved in Human Placental Vein Angiogenesis Media (HPVAM). HPVAM is made of Medium 199 (Vitrogen Corporation, Carlsbad, Calif.), an antibiotic/antimycotic solution (100 U/ml penicillin, 100 U/ml streptomycin sulfate, and 0.25 μg/ml amphotericin(3; Vitrogen Corporation), and endothelial growth medium (25%) (Vitrogen Corporation). The mixture was allowed to clot by incubating in 5% CO2, 95% air at 37° C. in a humidified incubator. After the medium-containing placental discs had clotted, the vein-containing clot was supplemented with 100 μl HPVAM containing 20% fetal bovine serum (Vitrogen Corporation). The total well volume was 200 μl.
Evaluation of Angiogenesis: Visual evaluation of all wells was performed at 20× or 40× magnification with a standardized reference grid by an unbiased observer using an inverted microscope. Every other day, discs were graded using two criteria: the initiation of sprouting vessels (initiation) and the degree of sprouting (angiogenic index). Initiation of an angiogenic response was defined as the development of three or more vessel sprouts around the periphery of the vein disc. Initiation occurred in 50-95% of the wells, usually 4 to 6 days after establishment of the clots. Initiation was expressed as the percent of the total wells plated that indicated an angiogenic response.
The angiogenic index (AI) was defined using a subjective visual rating system. Each disc was visually rated for the development of vessel sprouting in each of four quadrants. Each of the four quadrants for each disc was rated on a 0-4 scale, depending on the number of sprouts (density) and the length of sprouts. Scores for all four quadrants were summed to express the AI, a numerical rating that could range from 0 to 16. A score of zero indicated no vessel growth in any of the four quadrants, while a score of 16 indicated long, dense angiogenic vessel growth in all four quadrants. For most experiments, the AI was expressed as a mean plus/minus a standard error of the mean.
To separate the process of initiation from that of proliferation, the AI was analyzed both with zero AI data points and without zero AI data points. […] This lack of initiation could have been due either to the effect of the experimental compound, to the insensitivity of the vein disc to stimulation in the culture conditions, or to the vein disc not being viable. In previous experiments, we have shown that only a small percent, about 2 to 3%, of vein discs are not viable (data not shown). Thus, a graph of AI with zero AI data points indicates the complete angiogenic response of initiation and growth under the experimental conditions. However, a graph of AI without the zero AI data points indicates only growth of the vessels after initiation. […]

For series [2] the following is noted: 5% gallic acid, oral, 13 wks; cited from earlier work.
In a further series the test system is human fat tissue. The series can be described thus: Human fat tissue angiogenesis assay. Type of series: cell-based. Particulars: 0.01 M and 0.001 M, data not shown. The procedure: To test the angiogenic activity of plant extracts in another tissue, the refined fraction PUG100 was tested for its anti-angiogenic activity in human fat tissue taken from patients having gastric bypass surgery (Vista Surgical Hospital, Baton Rouge, La.). The human fat tissue assay was conducted very similar to that described in Example 1 for human placental vein tissue. […] (FIG. 25a). Immediately after the addition of the refined fraction PUG100, angiogenic vessel growth started to diverge. The control wells continued their growth, but the PUG100 treated wells stopped further growth. […] (Data not shown).

The mark [3] stands for this setting: Homo sapiens, 336 h, 14 days in culture, FIG. 12a, read-out: inhibition of angiogenic initiation compared to the control.
[4] abbreviates: Homo sapiens, FIG. 12b, read-out: inhibition of angiogenesis compared with the control (mean AI with the zero points).
The mark [5] stands for this setting: Homo sapiens, FIG. 12b, read-out: inhibition of angiogenic growth compared with the control (mean AI without the zero points).
Setting [6] is: highest concentration tested (2×10^−2M; octyl gallate 2×10^−3 M), FIG. 13a.

As to `CCCCOC(=O)c1cc(O)c(O)c(O)c1` [butyl gallate], the inhibition at 0.01 % strength in series [1] (setting [3]) is 85%; in series [1] (setting [4]), 96%; in series [1] (setting [5]), 74%. Besides, the initiation of angiogenesis result in series [1] (setting [6]) is listed as “totally blocked”.
On to `O=C(O)c1cc(O)c(O)c(O)c1` [gallic acid, 3,4,5-trihydroxy benzoic acid], for which the initiation of angiogenesis entry in series [1] (0.025%, added after six days, FIG. 5a) was “totally inhibited”; in series [1] (10^−3 M, FIG. 6a), “totally inhibited”; in series [1] (setting [6]), “totally blocked”; in the series on human fat tissue it was “inhibited initiation of angiogenesis”. The “mean AI with the zero points included (initiation and proliferation)” value in series [1] (10^−3 M, FIG. 6b) is “totally inhibited angiogenesis”. Also, the Percent initiation was determined as 56% in series [1] (10^−4 M, FIG. 6a); 50% in series [1] (10^−5 M, FIG. 6a); 33% in series [1] (up to 10^−10 M, FIG. 6a). Besides, the “concentrations at which the inhibitory effect stopped (mean AI with zero points)” value in series [1] (FIG. 6b) is ≤ 10^−6 M. Moreover, in series [1] (FIG. 6c), the “concentrations that showed inhibition (mean AI without the zero points, proliferation only)” value is “greater than 10^−4 M”. In addition, the inhibition at 25 µM in series [1] (Homo sapiens, read-out: estimated inhibition (IC19) if gallic acid were the only active compound, 2.5×10^−5 M) was 19%. Moreover, in series [2], the body weight gain result is “suppress body weight gain”.
On to `COC(=O)c1cc(O)c(O)c(O)c1` [methyl gallate], for which the results for the inhibition at 0.01 % strength in series [1] (setting [3]), in series [1] (setting [4]) and in series [1] (setting [5]) were 38%, 71% and 52%, respectively.
Turning to `CCCCCCCCOC(=O)c1cc(O)c(O)c(O)c1` [octyl gallate], in series [1], the “lowest concentration indicating inhibition of angiogenesis” value was 200 µM. Moreover, the initiation of angiogenesis result in series [1] (2×10^−4 M, FIG. 13a) is on record as “totally blocked”; in series [1] (setting [6]), “totally blocked”. The “mean AI with the zero points included (initiation and proliferation)” value in series [1] (2×10^−4 M, FIG. 13b) is “effective”. Further, the values for the inhibition at 0.01 % strength in series [1] (setting [3]), in series [1] (setting [4]) and in series [1] (setting [5]) were 85%, 97% and 83%, respectively.
Regarding `CCCOC(=O)c1cc(O)c(O)c(O)c1` [propyl gallate], the inhibition at 0.01 % strength in series [1] (setting [3]) was found to be 46%; in series [1] (setting [4]), 61%; in series [1] (setting [5]), 28%.
As to `O=C(OC[C@H]1O[C@@H](OC(=O)c2cc(O)c(O)c(OC(=O)c3cc(O)c(O)c(O)c3)c2)[C@H](OC(=O)c2cc(O)c(O)c(OC(=O)c3cc(O)c(O)c(O)c3)c2)[C@@H](OC(=O)c2cc(O)c(O)c(OC(=O)c3cc(O)c(O)c(O)c3)c2)[C@@H]1OC(=O)c1cc(O)c(O)c(OC(=O)c2cc(O)c(O)c(O)c2)c1)c1cc(O)c(O)c(OC(=O)c2cc(O)c(O)c(O)c2)c1` [tannic acid, Tannic acid], in series [1] (0.1% in HPVAM, FIG. 8a), the initiation of angiogenesis entry was “inhibited the initiation of angiogenesis even better than the positive heparin-steroid control”.
